From paper PMC7895427, “A stapled peptide mimetic of the CtIP tetramerization motif interferes with double-strand break repair and replication fork protection” (Science Advances, 2021)
Positions of bridges follow the written chain, without caps; N, C: chain ends. Non-standard residues stand in square brackets, D forms with d. Residues, ends and D or L forms follow the SMILES beside them. R8 = C=CCCCCCC[C@@](C)(N)C(=O)O; S5 = C=CCCC[C@](C)(N)C(=O)O

Assays:
[1] = CD spectroscopy and CD thermal denaturation; type: physicochemical; conditions: 210 nm, 25° until 90°C, ddH2O
Experimental: CD spectroscopy data were collected on a Jasco J-710 spectropolarimeter. A total of 0.2 or 0.05 mg/ml of LP^18–28 or SP^18–28 in ddH2O was measured with a 1-mm path length cuvette. CD spectra were recorded at 0.5-nm intervals between 190 and 260 nm at 25°C. CD thermal denaturation data were recorded at 210 nm at 0.2°C intervals starting at 25° until 90°C.

HeLa cells = test: Clonogenic survival assay; type: cell-based; conditions: 10 μM, fig. S7A
Experimental: (§1) Two hundred cells per well were seeded into poly-L-lysine (Sigma-Aldrich)–coated 24-well plates and the next day treated with respective drugs (CPT, Sigma-Aldrich; olaparib, Selleck Chemicals) and peptides (total volume: 300 μl per well). For details, see figure legends. After 10 days of growth, cells were fixed with crystal violet solution [0.5% crystal violet and 20% ethanol (w/v)]. Plates were scanned, and survival was analyzed with the ImageJ plugin Colony Area using the parameter colony intensity as readout ([47]).

MCF10A = test: Clonogenic survival assay; type: cell-based; conditions: 10 μM peptide 24 hours, 10 days growth; BRCA1 wt nontumorigenic cell line
Experimental: as §1

MCF7 = test: Clonogenic survival assay; type: cell-based; conditions: 10 μM peptide 24 hours, 10 days growth; BRCA1 wt breast cancer cell line
Experimental: as §1

RPE1 = test: Clonogenic survival assay; type: cell-based; conditions: 10 μM peptide 24 hours, 10 days growth; BRCA1 wt nontumorigenic cell line
Experimental: as §1

U2OS cells = test: EdU incorporation, cell cycle distribution and cell proliferation; type: cell-based; conditions: fig. S5, E and F; proliferation at 5 μM
Experimental: HeLa cells were seeded into six-well plates and incubated with peptides in a volume of 2 ml for varying time points. Cells were harvested by trypsinization, washed, and resuspended in PBS before subjecting them to flow cytometry analysis. FITC intensity was measured with an Attune Nxt flow cytometer equipped with a 488-nm laser and 530/30 band-pass filter. Analysis of 5-Ethynyl-2′-deoxyuridine (EdU) incorporation was carried out using the Click-iT EdU technology (Thermo Fisher Scientific) as described in the manufacturer’s instructions. A minimum of 20,000 events were recorded.
A total of 125 and 250 U2OS cells were seeded in triplicates in 96-well plates in a volume of 90 μl. Twenty-four hours after seeding, 10 μl of medium only or medium with the indicated peptides was added to the wells reaching a final peptide concentration of 5 μM. Cell proliferation was monitored using a CellTiter-Blue–based (Promega) approach at specific time points (0, 2, 5, and 7 days after peptide treatment). In brief, 20-μl CellTiter-Blue reagent (Promega) was added to the wells, incubated for 4 hours, and fluorescence intensity was measured at 560/590 nm using a SpectraMax M5 microplate reader (Molecular Devices).

full-length CtIP-wt = target: T1, full-length CtIP-wt (Homo sapiens, UniProt Q99708); test: Blue native PAGE of full-length CtIP incubated with peptides; type: biochemical; conditions: 1- to 32-fold molar excess SP^18–28, 32-fold LP^18–28, 30 min RT
T1 construct: Full-length CtIP was purified according to ([14]); 3xFLAG; made in house
T1 sequence (Q99708 whole entry): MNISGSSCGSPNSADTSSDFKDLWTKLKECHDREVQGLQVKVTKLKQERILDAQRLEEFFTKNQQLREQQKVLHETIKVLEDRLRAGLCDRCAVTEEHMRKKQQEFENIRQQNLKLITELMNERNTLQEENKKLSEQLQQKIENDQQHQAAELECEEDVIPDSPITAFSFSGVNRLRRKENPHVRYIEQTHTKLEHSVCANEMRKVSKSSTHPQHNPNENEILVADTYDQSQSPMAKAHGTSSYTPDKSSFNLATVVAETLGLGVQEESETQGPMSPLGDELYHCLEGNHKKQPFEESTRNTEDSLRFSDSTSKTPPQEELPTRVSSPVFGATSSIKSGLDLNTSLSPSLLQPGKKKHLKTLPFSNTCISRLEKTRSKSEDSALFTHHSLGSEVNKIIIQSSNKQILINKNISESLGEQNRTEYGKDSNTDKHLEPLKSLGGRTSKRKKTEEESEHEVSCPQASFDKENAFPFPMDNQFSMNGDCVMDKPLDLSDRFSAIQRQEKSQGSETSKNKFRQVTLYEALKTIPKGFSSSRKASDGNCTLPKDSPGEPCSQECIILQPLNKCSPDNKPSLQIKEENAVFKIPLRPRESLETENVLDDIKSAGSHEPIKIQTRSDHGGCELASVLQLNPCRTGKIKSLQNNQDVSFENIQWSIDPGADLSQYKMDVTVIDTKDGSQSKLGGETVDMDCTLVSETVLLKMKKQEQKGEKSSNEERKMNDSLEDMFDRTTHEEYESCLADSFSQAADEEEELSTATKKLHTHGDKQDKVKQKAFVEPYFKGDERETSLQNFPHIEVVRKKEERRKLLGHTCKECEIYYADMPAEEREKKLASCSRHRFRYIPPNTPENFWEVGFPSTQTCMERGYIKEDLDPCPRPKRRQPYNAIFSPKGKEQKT
Experimental: Reactions were assembled in a volume of 10 μl with a 1.5 μM final concentration of CtIP and either 0, 1.5, 3, 6, 12, 24, or 48 μM LP/SP^18–28 in buffer A [10 mM tris (pH 8.0), 25 mM NaCl, 5% glycerol, and 0.5 mM dithiothreitol (DTT)] and 1× Blue Native Loading buffer [50 mM bis-tris (pH 7.2), 6 N HCl, 50 mM NaCl, 10% (w/v) glycerol, and 0.001% Ponceau S]. After incubation for 30 min at RT, samples were loaded onto a NativePAGE Novex 3 to 12% bis-tris gel (Invitrogen) and run at 150 V for 75 min. Gels were fixed in 40% methanol (MeOH) and 10% acetic acid and destained with 8% acetic acid.

U2OS^GFP-CtIP-wt = test: Laser microirradiation, GFP-CtIP recruitment to γH2AX-decorated laser stripes; type: cell-based; conditions: 10 μM peptide, 24 hours, fixed 30 min after microirradiation; n = 4
Experimental: Laser microirradiation was carried out as described previously ([25]). Briefly, cells were grown in 10 μM 5-bromo-2′-deoxyuridine (BrdU) for 24 hours before irradiation. Laser microirradiation was performed using a MMI CELLCUT system containing an ultraviolet (UV) A laser of 355 nm. Energy output was set to 50%, and each cell was exposed to laser beam for <300 ms. Cells were released for 30 min before fixation in 4% formaldehyde (w/v) in PBS for 15 min and permeabilization with 0.5% Triton X-100 (w/v) in PBS for 5 min at RT. After blocking with 3% FCS (w/v) in PBS for 1 hour, cells were stained with primary antibodies (table S3) for 2 hours. Staining with secondary antibodies (table S3) was performed for 1 hour. Coverslips were mounted with Vectashield supplemented with DAPI (4′,6-diamidino-2-phenylindole; Vector Laboratories), and images were acquired on a Leica DM6, 63× objective. For CtIP foci analyses, cells were fixed in 4% formaldehyde (w/v) in PBS for 15 min before permeabilization with 0.5% Triton X-100 (w/v) in PBS for 5 min at RT. A blocking step with 3% FCS (w/v) in PBS for 1 hour was followed by primary (2-hour) and secondary (1-hour) staining at RT.

U2OS EGFP-HR = test: HR reporter assay; type: cell-based; conditions: 10 μM peptide, 24 hours; GFP-positive cells by flow cytometry; n = 4
Experimental: HR reporter assay was performed as described previously ([45], [46]). Briefly, U2OS EGFP-HR were seeded into a 12-well plate and the day after transfected with pCBA I-SceI expression plasmid using jetPRIME transfection reagent (Polyplus). Four hours later, medium was exchanged, and cells were incubated with peptides for 24 hours in 1-ml total volume. Twenty-four hours later, medium was replaced, and cells were harvested 48 hours after I-SceI transfection. A-EJ reporter assay was performed according to ([10]) with some minor modifications. Specifically, U2OS EGFP-aEJ were seeded into six-well plates and siRNA transfected. Six hours later, cells were transfected with I-SceI expression plasmid (pCBA) using Fugene 6 (Promega). Medium was exchanged 24 hours after and replaced with 2-ml fresh medium and the peptides (10 μM). Twenty-four hours later, medium was again replaced with fresh medium without peptides, and 72 hours after I-SceI transfection, cells were harvested. GFP expression (readout for HR and a-EJ frequency) was measured by flow cytometry using the Attune Nxt flow cytometer equipped with a 488-nm laser and 530/30 band-pass filter. A minimum of 20,000 events were recorded.

| effect on CtIP-wt oligomeric state (full-length CtIP-wt) | Compound | heat stability of secondary structure (CD thermal denaturation) [1] | tolerability of acute peptide treatment (clonogenic) (HeLa cells; acute (24-hour) treatment) | cytotoxicity of chronic peptide treatment on its own (clonogenic) (HeLa cells; prolonged chronic treatment) | cell survival (clonogenic) (MCF10A) | cell survival (clonogenic) (MCF7) | cell survival (clonogenic) (RPE1) | bulk DNA replication, cell cycle distribution and cell proliferation (U2OS cells) | CtIP recruitment to γH2AX-decorated laser stripes (U2OS^GFP-CtIP-wt) | HR frequency of I-SceI–induced DSBs (U2OS EGFP-HR) |
| --- | --- | --- | --- | --- | --- | --- | --- | --- | --- | --- |
|  | CC(=O)N[C@@H](CO)C(=O)N[C@]1(C)CCCCCCC=CCCC[C@@](C)(C(=O)N[C@@H](CC(C)C)C(=O)N[C@@H](CCCCN)C(N)=O)NC(=O)[C@H]([C@@H](C)O)NC(=O)[C@H](Cc2c[nH]c3ccccc23)NC(=O)[C@H](CC(C)C)NC(=O)[C@H](CC(=O)O)NC(=O)[C@H](CCCCN)NC(=O)[C@H](Cc2ccccc2)NC1=O [SP^18–28] (Ac-S[R8]FKDLWT[S5]LK-NH2; staple 2-9) | no unfolding could be observed at temperatures of up to 90 °C | well tolerated | extreme cytotoxicity | did not perceive a negative impact on cell survival | did not perceive a negative impact on cell survival | did not perceive a negative impact on cell survival | neither interferes with bulk DNA replication nor causes any significant changes in cell cycle distribution and cell proliferation |  |  |
| no apparent structural changes | Ac-SDFKDLWTKLK-NH2 [LP^18–28] |  |  |  |  |  |  |  | no significant effect | no measurable impact |
